Reference: US4803217A, “Hapalindolinone compounds as vassopressin antagonists” (Merck & Co., Inc., priority 1986, dated 1989)

Experiments:
[1] = target: vasopressin-stimulated adenylate cyclase, Kidney (V2); assay: Inhibition of vasopressin-stimulated adenylate cyclase in kidney medulla (V2 antagonism); assay type: biochemical; conditions: conversion of ATP to cAMP, mean, n = 2, read-out: IC50 Values, AVP-stimulated Ad. Cyclase, Kidney (V2)
Excerpt: (§1) The table summarizes the in vitro potency of the compound to compete for ^3 H-vasopressin binding at two proposed vasopressin receptor subtypes (V1, V2), as well as to inhibit vasopressin-stimulated adenylate cyclase-activity, a further measure of vasopressin antagonism.
Vasopressin exerts its antidiuretic effects on the kidney through the stimulation of adenylate cyclase activity. Vasopressin-stimulated adenylate cyclase in kidney medulla, therefore, is used as a functional assay to determine the potencies of the test compound as V2 -vasopressin antagonists. In this assay, the IC50 value obtained for the compound IA (see Table IV) is a measure of its potency to inhibit the vasopressin-stimulated conversion of ATP to CAMP by adenylate cyclase. This method was adapted from Seamon et al., PNAS 78: 3363-3367 (1981).

[2] = target: T1, V2 (antidiuretic) vasopressin receptor, kidney medulla crude membrane preparation (Rattus norvegicus, UniProt Q00788); assay: [3H]Arginine Vasopressin Binding Assay, kidney medulla (V2); conditions: kidney medulla membranes; mean with standard error, n = 3; read-out: IC50 Values, 3H-Arg8-Vasopressin Binding, Kidney (V2)
T1 construct: crude membrane preparation of rat liver (V1 receptor) or kidney medulla (V2 receptor); from tissue; host or cells: kidney medulla, crude membrane preparation
T1 sequence (Q00788 whole entry): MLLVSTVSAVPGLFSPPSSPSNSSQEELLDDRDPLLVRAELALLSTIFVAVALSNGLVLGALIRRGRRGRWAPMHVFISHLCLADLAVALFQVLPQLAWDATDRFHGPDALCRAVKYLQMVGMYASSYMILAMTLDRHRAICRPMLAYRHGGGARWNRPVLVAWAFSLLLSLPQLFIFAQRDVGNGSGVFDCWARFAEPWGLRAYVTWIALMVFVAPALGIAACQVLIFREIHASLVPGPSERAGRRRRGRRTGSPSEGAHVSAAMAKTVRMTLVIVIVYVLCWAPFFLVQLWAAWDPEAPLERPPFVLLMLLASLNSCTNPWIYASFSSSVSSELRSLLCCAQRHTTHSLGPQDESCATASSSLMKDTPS
Excerpt: as §1
(§2) The [^3 H]Arginine Vasopressin Binding Assay is an in vitro procedure which was adapted from the method of Guillon et al., Eur. J. Pharmacol. 85: 219-304 (1982). It measures the relative affinity of the compound for vasopressin receptor(s) labelled by [^3 H]vasopressin. Vasopressin receptors have been divided into two subtypes pharmacollogically: the V1 (pressor)-receptor found in liver and vascular smooth muscle and the V2 (antidiuretic) receptor found in kidney medulla. The binding assay uses a crude membrane preparation of rat liver (V1 receptor) or kidney medulla (V2 receptor) which is incubated with [^3 H]vaspopressin in the presence or absence of the test compound. The IC50 values (concentrations to inhibit [^3 H]vasopressin binding by 50%) for the compound (see Table VI) are measures of their potencies and are inversely related to their affinities.

[3] = target: T2, V1 (pressor) vasopressin receptor, rat liver crude membrane preparation (Rattus norvegicus, UniProt P30560); assay: [3H]Arginine Vasopressin Binding Assay, liver (V1); conditions: rat liver membranes; mean, n = 3; read-out: IC50 Values, 3H-Arg8-Vasopressin Binding, Liver (V1)
T2 construct: crude membrane preparation of rat liver (V1 receptor); from tissue; host or cells: rat liver, crude membrane preparation
T2 sequence (P30560 whole entry): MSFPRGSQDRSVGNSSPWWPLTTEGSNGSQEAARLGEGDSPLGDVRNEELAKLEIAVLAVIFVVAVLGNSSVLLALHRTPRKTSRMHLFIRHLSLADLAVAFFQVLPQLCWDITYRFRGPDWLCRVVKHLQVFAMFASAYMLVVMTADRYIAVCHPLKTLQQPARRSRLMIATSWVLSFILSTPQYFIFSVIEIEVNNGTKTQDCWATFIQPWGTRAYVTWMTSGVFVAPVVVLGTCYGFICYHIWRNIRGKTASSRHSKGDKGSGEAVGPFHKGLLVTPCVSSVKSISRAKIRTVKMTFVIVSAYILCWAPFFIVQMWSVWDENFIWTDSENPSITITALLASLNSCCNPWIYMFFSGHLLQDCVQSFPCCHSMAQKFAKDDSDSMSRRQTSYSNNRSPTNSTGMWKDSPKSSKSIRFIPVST
Excerpt: as §1, §2

For `[C-]#[N+]C12C(C(C(=C)C)CC(Cl)C1(C)C=C)C21C(=O)Nc2ccccc21` (stereo not drawn) [Formula IA, Hapalindolinone A], the IC50 [1] was 44.6 µM, the IC50 [2] was 37.5 ± 7.6 µM and the IC50 [3] was > 100 µM.
